# In PubChem BioAssay (NCI):
#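 48-hour exposure; five concentrations; linearly interpolated endpoints. Abbreviation: GI50, concentration required for 50% inhibition of growth. The concentration for full growth arrest is given as TGI.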
# Legend:
# Experiment in all cases: NCI tumour cell line growth inhibition, 48 h
# [1] = system: SF-539 CNS
# [2] = system: HOP-62 NSCLC
# [3] = system: MDA-MB-231 breast
# [4] = system: M14 melanoma
# [5] = system: EKVX NSCLC
# [6] = system: SK-MEL-5 melanoma
# [7] = system: SN12C renal
# [8] = system: K-562 leukemia
# [9] = system: IGROV1 ovarian
# [10] = system: UO-31 renal
# [11] = system: SW-620 colon
# [12] = system: SF-268 CNS
# [13] = system: RPMI-8226 leukemia
# [14] = system: U251 CNS
# [15] = system: KM12 colon
# [16] = system: UACC-257 melanoma
# [17] = system: OVCAR-8 ovarian
# [18] = system: A498 renal
# [19] = system: T-47D breast
# [20] = system: NCI-H23 lung
# [21] = system: UACC-62 melanoma
# [22] = system: MCF7 breast
# [23] = system: NCI/ADR-RES ovarian
# [24] = system: SK-OV-3 ovarian
# [25] = system: MOLT-4 leukemia
# [26] = system: OVCAR-4 ovarian
# [27] = system: OVCAR-5 ovarian
# [28] = system: HS 578T breast
# [29] = system: NCI-H460 lung
# [30] = system: HCT-116 colon
# [31] = system: SK-MEL-2 melanoma
# [32] = system: ACHN renal
# [33] = system: OVCAR-3 ovarian
# [34] = system: HOP-92 NSCLC
# [35] = system: HCC-2998 colon
# [36] = system: 786-0 renal
# [37] = system: TK-10 renal
# [38] = system: HT29 colon
# [39] = system: SNB-75 CNS
# [40] = system: CCRF-CEM leukemia
# [41] = system: HCT-15 colon
# [42] = system: NCI-H226 lung
# [43] = system: MDA-MB-435
# [44] = system: DU-145 prostate
# [45] = system: COLO 205 colon
# [46] = system: RXF 393 renal
# [47] = system: A549 NSCLC
# [48] = system: SK-MEL-28 melanoma
# [49] = system: SF-295 CNS
# [50] = system: SNB-19 CNS
# [51] = system: MALME-3M melanoma
# [52] = system: LOX IMVI melanoma
# [53] = system: SR leukemia
# [54] = system: PC-3 prostate
# [55] = system: NCI-H522 lung
# [56] = system: CAKI-1 renal
# [57] = system: BT-549 breast
# [58] = system: HL-60(TB) leukemia
structure (smiles),measurement,setting,value
O=C(Cc1ccccc1)NN1C(=O)/C(=C\c2ccc([N+](=O)[O-])cc2)SC1=Nc1ccccc1,TGI,[1],> 100 µM
same,TGI,[2],> 100 µM
same,TGI,[3],> 100 µM
same,TGI,[4],> 100 µM
same,TGI,[5],> 100 µM
same,TGI,[6],> 100 µM
same,TGI,[7],> 100 µM
same,TGI,[8],> 100 µM
same,TGI,[9],> 100 µM
same,TGI,[10],> 100 µM
same,TGI,[11],> 100 µM
same,TGI,[12],> 100 µM
same,TGI,[13],> 100 µM
same,TGI,[14],> 100 µM
same,TGI,[15],> 100 µM
same,TGI,[16],> 100 µM
same,TGI,[17],> 100 µM
same,TGI,[18],> 100 µM
same,TGI,[19],> 100 µM
same,TGI,[20],> 100 µM
same,TGI,[21],> 100 µM
same,TGI,[22],> 100 µM
same,TGI,[23],> 100 µM
same,TGI,[24],> 100 µM
same,TGI,[25],> 100 µM
same,TGI,[26],> 100 µM
same,TGI,[27],> 100 µM
same,TGI,[28],> 100 µM
same,TGI,[29],> 100 µM
same,TGI,[30],> 100 µM
same,TGI,[31],> 100 µM
same,TGI,[32],> 100 µM
same,TGI,[33],> 100 µM
same,TGI,[34],> 100 µM
same,TGI,[35],> 100 µM
same,TGI,[36],> 100 µM
same,TGI,[37],> 100 µM
same,TGI,[38],> 100 µM
same,TGI,[39],> 100 µM
same,TGI,[40],> 100 µM
same,TGI,[41],> 100 µM
same,TGI,[42],> 100 µM
same,TGI,[43],> 100 µM
same,TGI,[44],> 100 µM
same,TGI,[45],> 100 µM
same,TGI,[46],> 100 µM
same,TGI,[47],> 100 µM
same,TGI,[48],> 100 µM
same,TGI,[49],> 100 µM
same,TGI,[50],> 100 µM
CC[C@]1(O)C[C@@H]2CN(CCc3c([nH]c4ccccc34)[C@@](C(=O)OC)(c3cc4c(cc3OC)N(C)[C@H]3[C@@](O)(C(=O)OC)[C@H](OC(C)=O)[C@]5(CC)C=CCN6CC[C@]43[C@@H]65)C2)C1,GI50,[1],< 0.01 µM
same,TGI,[1],< 0.01 µM
same,GI50,[2],< 0.01 µM
same,TGI,[2],24.1 µM
same,GI50,[3],< 0.01 µM
same,TGI,[3],11.2 µM
same,GI50,[51],< 0.01 µM
same,TGI,[51],14.1 µM
same,GI50,[4],< 0.01 µM
same,TGI,[4],4.31 µM
same,TGI,[5],> 79 µM
same,GI50,[6],< 0.01 µM
same,TGI,[6],< 0.0385 µM
same,GI50,[52],< 0.01 µM
same,TGI,[52],14.8 µM
same,GI50,[7],< 0.01 µM
same,TGI,[7],35.7 µM
same,GI50,[8],< 0.01 µM
same,TGI,[8],14.6 µM
same,GI50,[9],< 0.01 µM
same,TGI,[9],13 µM
same,GI50,[10],0.175 µM
same,TGI,[10],19.1 µM
same,GI50,[11],< 0.01 µM
same,TGI,[11],> 100 µM
same,GI50,[12],< 0.0281 µM
same,TGI,[12],19.5 µM
same,GI50,[13],< 0.01 µM
same,TGI,[13],8.54 µM
same,GI50,[14],< 0.01 µM
same,TGI,[14],20.5 µM
same,GI50,[15],< 0.01 µM
same,TGI,[15],14.4 µM
same,GI50,[16],14.6 µM
same,TGI,[16],37.8 µM
same,GI50,[17],< 0.01 µM
same,TGI,[17],> 100 µM
same,GI50,[18],< 0.01 µM
same,TGI,[18],< 0.01 µM
same,GI50,[19],8.59 µM
same,TGI,[19],> 100 µM
same,GI50,[53],< 0.01 µM
same,TGI,[53],19.6 µM
same,GI50,[20],< 0.01 µM
same,TGI,[20],> 100 µM
same,GI50,[21],< 0.01 µM
same,TGI,[21],17.4 µM
same,GI50,[22],< 0.01 µM
same,TGI,[22],32.3 µM
same,GI50,[54],< 0.01 µM
same,TGI,[54],22.2 µM
same,GI50,[23],< 0.0445 µM
same,TGI,[23],2.68 µM
same,TGI,[24],45 µM
same,GI50,[25],< 0.01 µM
same,TGI,[25],21.3 µM
same,TGI,[26],> 100 µM
same,GI50,[27],< 0.01 µM
same,TGI,[27],87.7 µM
same,GI50,[28],< 0.01 µM
same,TGI,[28],10.8 µM
same,GI50,[29],< 0.01 µM
same,TGI,[29],15.1 µM
same,GI50,[55],< 0.01 µM
same,GI50,[30],< 0.01 µM
same,TGI,[30],15 µM
same,GI50,[31],< 0.0149 µM
same,TGI,[31],20.2 µM
same,GI50,[32],< 0.0324 µM
same,TGI,[32],73.9 µM
same,GI50,[33],< 0.01 µM
same,TGI,[33],< 0.01 µM
same,GI50,[34],< 0.01 µM
same,GI50,[35],< 0.01 µM
same,TGI,[35],7.74 µM
same,GI50,[36],< 0.01 µM
same,TGI,[36],14.5 µM
same,GI50,[37],6.02 µM
same,TGI,[37],26.9 µM
same,GI50,[38],< 0.01 µM
same,TGI,[38],18.9 µM
same,GI50,[39],< 0.01 µM
same,TGI,[39],0.592 µM
same,GI50,[56],< 0.01 µM
same,TGI,[56],4.65 µM
same,GI50,[40],< 0.01 µM
same,TGI,[40],> 49.3 µM
same,GI50,[41],< 0.0116 µM
same,TGI,[41],14.6 µM
same,TGI,[42],17.7 µM
same,GI50,[43],< 0.01 µM
same,TGI,[43],< 0.01 µM
same,GI50,[57],< 0.01 µM
same,TGI,[57],8.4 µM
same,GI50,[45],< 0.01 µM
same,TGI,[45],< 0.0194 µM
same,GI50,[46],< 0.01 µM
same,TGI,[46],3.77 µM
same,GI50,[58],< 0.01 µM
same,TGI,[58],< 0.01 µM
same,GI50,[47],< 0.01 µM
same,TGI,[47],> 100 µM
same,GI50,[48],11.1 µM
same,TGI,[48],28 µM
same,GI50,[49],< 0.01 µM
same,TGI,[49],0.991 µM
same,GI50,[50],< 0.01 µM
same,TGI,[50],> 100 µM
